Measurements reported in US11840548B2, “UV-curable phosphonium small molecules as antimicrobial coatings and surface active additives” (SCI RESOURCE PLATFORM INC., priority 2020, dated 2023).
“Also recorded” adds a separate entry of the source.

Experiments:
[1] = tested on: E. coli (ATCC strain 11229); assay: large drop inoculum (LDI) test, E. coli; format: cell-based; details: UV-cured coating on polystyrene plastic; after 24 hours in contact with the surface
Excerpt: To guarantee all inoculated cells enter into contact with the test surface, […], serially diluted, plated out onto tryptic soy agar, and enumerated to assess the extent of cell survival and thus antimicrobial efficacy of the test surfaces. Arthrobacter (IAI-3) and E. coli (ATCC strain 11229) were chosen as representative Gram-positive and Gram-negative bacterial strains.
The efficacy of these materials against the representative strains of Gram-negative and Gram-positive bacteria lead us to probe the antimicrobial capability of these materials after being subject to abrasive processes, to determine whether tethered sub-surface phosphonium observed by XPS can translate to materials with antimicrobial properties after the surface has be abraded. The process of using an aqueous solution to wipe or rub away dirt or bacteria is one fundamental to sanitation,^50 and as such the solvent double rub protocol described in ASTM D5402^51 was chosen as a representative test of durability. Water was chosen as the solvent due to its ubiquity in cleaning solutions. The same extruded polypropylene samples subjected to the LDI were first rinsed with copious amounts of sterile distilled water, then vortexed for 5 minutes in saline to remove any bacterial debris from the initial test. After another rinse step, the pieces were subjected to 100 solvent double rubs on the tested side using a cotton cloth saturated with distilled water, the amount of force of each rub measured to be between 1000 g and 1600 g. After 100 double rubs, the pieces were rinsed, sterilized under UV light, and the abraded sides were subject to another loading of bacteria.

Arthrobacter sp. (IAI-3) = assay: large drop inoculum (LDI) test, Arthrobacter; format: cell-based; details: UV-cured coating on polystyrene plastic; after 3 hours in contact with the surface
Method: To guarantee all inoculated cells enter into contact with the test surface, the samples with the droplet are subjected to a standardized 3 h drying period. The cells are then recovered, serially diluted, plated out onto tryptic soy agar, and enumerated to assess the extent of cell survival and thus antimicrobial efficacy of the test surfaces. Arthrobacter (IAI-3) and E. coli (ATCC strain 11229) were chosen as representative Gram-positive and Gram-negative bacterial strains.

[2] = advancing water contact angle measurement; format: physicochemical; details: UV-cured phosphonium coating on polystyrene; triplicate
Method: Advancing water contact angle (θC) measurements were performed on the coated pieces to further probe the relationship between the structure of the phosphonium small molecules coated on the substrate and their macroscopic properties as coatings. Measurements for θC trend with charge density results (Table 1).
Thus, after the coating step, a pre-extrusion UV-cure process was introduced to immobilize the phosphoniums to the plastic bead surface. Extrusion of these pre-cured beads at 220° C. into a mold pre-heated to 100° C. yielded the tributylphosphonium-containing plastic PP-2, triphenylphosphonium-containing PP-3, (FIG. 8) and perfluoroalkylphosphonium-containing PP-4 as off-white coloured “dogbone” pieces. The discoloration was due to the amber or off-white natural coloring of the phosphoniums added to the melt, and not UV or heat exposure. The effect of incorporating each phosphonium at 1% was quantified by advancing WCA (Table 1). […] FIG. 1 is a schematic illustration showing a cross section of antimicrobial-enriched plastic with sub-surface phosphonium, which upon abrasion is exposed and available to combat microbial growth.

SMILES	reduction of viable Gram-negative E. coli cells [1]	reduction of viable Gram-positive Arthrobacter cells (Arthrobacter sp. (IAI-3))	θc, advancing water contact angle [2]
O=C(c1ccccc1)c1ccc(OCCC[P+](c2ccccc2)(c2ccccc2)c2ccccc2)cc1.[Br-] [phosphonium 3]	full reductions	full reductions	63.5±5.8 deg
O=C(c1ccccc1)c1ccc(OCCC[P+](CCC(F)(F)C(F)(F)C(F)(F)C(F)(F)C(F)(F)C(F)(F)F)(c2ccccc2)c2ccccc2)cc1.[Br-] [phosphonium 4]	full reductions	full reductions	68.0±2.0 deg
CCCC[P+](CCCC)(CCCC)CCCOc1ccc(C(=O)c2ccccc2)cc1.[Br-] [phosphonium 2]	full reductions	full reductions	36.4±11.0 deg
C[P+](C)(C)CCCOc1ccc(C(=O)c2ccccc2)cc1.[Br-] [phosphonium 1]	failing to reduce bacterial survivability; also recorded: lack of observed antimicrobial activity	failing to reduce bacterial survivability; also recorded: lack of observed antimicrobial activity	71.9 ± 5.1 deg
